Reference: ChEMBL document CHEMBL1154038, “Discovery of orally active, pyrrolidinone-based progesterone receptor partial agonists” (Bioorg Med Chem Lett, 2009)

How the values were obtained:
[1] = Plasma clearance in rat at 1.3 mg/kg, po; format: ADME, organism-based; parameters: dose 1.3 mg/kg, route oral
[2] = Volume of distribution at steady state in rat at 1 mg/kg, iv or 1.3 mg/kg, po; format: ADME, organism-based; conditions: in vivo, read-out: Vdss
[3] = Cmax in rat at 1.3 mg/kg, po; format: ADME, organism-based; parameters: dose 1.3 mg/kg, route oral; conditions: in vivo
[4] = AUC (0 to t) in rat at 1.3 mg/kg, po; format: ADME, organism-based; parameters: dose 1.3 mg/kg, route oral; conditions: plasma
[5] = Half life in rat at 1.3 mg/kg, po; format: ADME, organism-based; parameters: dose 1.3 mg/kg, route oral; conditions: in vivo
[6] = Oral bioavailability in rat at 1.3 mg/kg; format: ADME, organism-based; conditions: in vivo
[7] = Plasma clearance in rat at 2.2 mg/kg, po; format: ADME, organism-based; parameters: dose 2.2 mg/kg, route oral
[8] = Volume of distribution at steady state in rat at 1 mg/kg, iv or 2.2 mg/kg, po; format: ADME, organism-based; conditions: in vivo, read-out: Vdss
[9] = Cmax in rat at 2.2 mg/kg, po; format: ADME, organism-based; parameters: dose 2.2 mg/kg, route oral; conditions: in vivo
[10] = AUC (0 to t) in rat at 2.2 mg/kg, po; format: ADME, organism-based; parameters: dose 2.2 mg/kg, route oral; conditions: plasma
[11] = Half life in rat at 2.2 mg/kg, po; format: ADME, organism-based; parameters: dose 2.2 mg/kg, route oral; conditions: in vivo
[12] = Oral bioavailability in rat at 2.2 mg/kg; format: ADME, organism-based; conditions: in vivo
[13] = Plasma clearance in monkey at 1.6 mg/kg, po; format: ADME, organism-based, Macaca mulatta; parameters: dose 1.6 mg/kg, route oral; conditions: rhesus monkey
[14] = Volume of distribution at steady state in monkey at 1 mg/kg, iv or 1.6 mg/kg, po; format: ADME, organism-based, Macaca mulatta; conditions: rhesus monkey, in vivo, read-out: Vdss
[15] = Cmax in monkey at 1.6 mg/kg, po; format: ADME, organism-based, Macaca mulatta; parameters: dose 1.6 mg/kg, route oral; conditions: rhesus monkey, in vivo
[16] = AUC (0 to t) in monkey at 1.6 mg/kg, po; format: ADME, organism-based, Macaca mulatta; parameters: dose 1.6 mg/kg, route oral; conditions: rhesus monkey, plasma
[17] = Half life in monkey at 1.6 mg/kg, po; format: ADME, organism-based, Macaca mulatta; parameters: dose 1.6 mg/kg, route oral; conditions: rhesus monkey, in vivo
[18] = Oral bioavailability in monkey at 1.6 mg/kg, po; format: ADME, organism-based, Macaca mulatta; conditions: rhesus monkey, in vivo
[19] = Plasma clearance in rat at 0.12 mg/kg, po; format: ADME, organism-based; parameters: dose 0.12 mg/kg, route oral
[20] = Volume of distribution at steady state in rat at 1.1 mg/kg, iv or 0.12 mg/kg, po; format: ADME, organism-based; conditions: in vivo, read-out: Vdss
[21] = Cmax in rat at 0.12 mg/kg, po; format: ADME, organism-based; parameters: dose 0.12 mg/kg, route oral; conditions: in vivo
[22] = AUC (0 to t) in rat at 0.12 mg/kg, po; format: ADME, organism-based; parameters: dose 0.12 mg/kg, route oral; conditions: plasma
[23] = Half life in rat at 0.12 mg/kg, po; format: ADME, organism-based; parameters: dose 0.12 mg/kg, route oral; conditions: in vivo
[24] = Oral bioavailability in rat at 0.12 mg/kg; format: ADME, organism-based; conditions: in vivo
[25] = Plasma clearance in rat at 2.0 mg/kg, po; format: ADME, organism-based; parameters: dose 2 mg/kg, route oral
[26] = Volume of distribution at steady state in rat at 1.1 mg/kg, iv or 2 mg/kg, po; format: ADME, organism-based; conditions: in vivo, read-out: Vdss
[27] = Cmax in rat at 2 mg/kg, po; format: ADME, organism-based; parameters: dose 2 mg/kg, route oral; conditions: in vivo
[28] = AUC (0 to t) in rat at 2 mg/kg, po; format: ADME, organism-based; parameters: dose 2 mg/kg, route oral; conditions: plasma
[29] = Half life in rat at 2 mg/kg, po; format: ADME, organism-based; parameters: dose 2 mg/kg, route oral; conditions: in vivo
[30] = Oral bioavailability in rat at 2 mg/kg; format: ADME, organism-based; conditions: in vivo
[31] = Plasma clearance in monkey at 1.3 mg/kg, po; format: ADME, organism-based, Macaca mulatta; parameters: dose 1.3 mg/kg, route oral; conditions: rhesus monkey
[32] = Volume of distribution at steady state in monkey at 1 mg/kg, iv or 1.3 mg/kg, po; format: ADME, organism-based, Macaca mulatta; conditions: rhesus monkey, in vivo, read-out: Vdss
[33] = Cmax in monkey at 1.3 mg/kg, po; format: ADME, organism-based, Macaca mulatta; parameters: dose 1.3 mg/kg, route oral; conditions: rhesus monkey, in vivo
[34] = AUC (0 to t) in monkey at 1.3 mg/kg, po; format: ADME, organism-based, Macaca mulatta; parameters: dose 1.3 mg/kg, route oral; conditions: rhesus monkey, plasma
[35] = Half life in monkey at 1.3 mg/kg, po; format: ADME, organism-based, Macaca mulatta; parameters: dose 1.3 mg/kg, route oral; conditions: rhesus monkey, in vivo
[36] = Oral bioavailability in monkey at 1.3 mg/kg, po; format: ADME, organism-based, Macaca mulatta; conditions: rhesus monkey, in vivo

CCN1C[C@@H](N(Cc2cc(F)ccc2Cl)c2ccc(C#N)c(Cl)c2)CC1=O
CL/F [1]: 75 mL/min/kg
Vd [2]: 15 L/kg
Cmax [3]: 97 ng/mL
AUC(0-t) [4]: 290 ng·h/mL
half-life [5]: 2 h
bioavailability [6]: 100%

CN1C[C@@H](N(Cc2cccc(F)c2F)c2ccc(C#N)c(Cl)c2)CC1=O
CL/F [7]: 16 mL/min/kg
Vd [8]: 3.4 L/kg
Cmax [9]: 660 ng/mL
AUC(0-t) [10]: 2300 ng·h/mL
half-life [11]: 6.2 h
bioavailability [12]: 100%
CL/F [13]: 110 mL/min/kg
Vd [14]: 1.7 L/kg
Cmax [15]: 92 ng/mL
AUC(0-t) [16]: 270 ng·h/mL
half-life [17]: 1.4 h
bioavailability [18]: 15%

CC(C)N1C[C@@H](N(Cc2ccccc2Cl)c2ccc(C#N)c(Cl)c2)CC1=O
CL/F [19]: 40 mL/min/kg
Vd [20]: 42 L/kg
Cmax [21]: 10 ng/mL
AUC(0-t) [22]: 30 ng·h/mL
half-life [23]: 5.8 h
bioavailability [24]: 100%

CCN1C[C@@H](N(Cc2cc(Cl)ccc2Cl)c2ccc(C#N)c(Cl)c2)CC1=O
CL/F [25]: 230 mL/min/kg
Vd [26]: 35 L/kg
Cmax [27]: 84 ng/mL
AUC(0-t) [28]: 150 ng·h/mL
half-life [29]: 1.8 h
bioavailability [30]: 100%
CL/F [31]: 480 mL/min/kg
Vd [32]: 2.8 L/kg
Cmax [33]: 15 ng/mL
AUC(0-t) [34]: 32 ng·h/mL
half-life [35]: 1.5 h
bioavailability [36]: 4.9%
